According to patent publication US10051861B2, “N-arylamidine-substituted trifluoroethyl sulfide derivatives as acaricides and insecticides” (BAYER CROPSCIENCE AG, priority 2011, dated 2018):
Marks after values point to notes of the source that are not given here.

Legend:
[1] = test system: L1 larvae of the Australian sheep blowfly (Lucilia cuprina); test: Lucilia cuprina test (LUCICU); assay type: in vivo; details: application rate 100 ppm, after 2 days
Method: (§1) Solvent: dimethyl sulfoxide
About 20 L1 larvae of the Australian sheep blowfly (Lucilia cuprina) are transferred into a test vessel containing minced horsemeat and the active compound preparation of the desired concentration.
After 2 days, the kill in % is determined.

[2] = test system: greenhouse red spider mite (Tetranychus urticae); test: Tetranychus urticae spray test, OP-resistant (TETRUR), bean leaf disks; assay type: in vivo; details: application rate 500 g/ha, after 6 days
Method: After 6 days, the effect in % is determined.

[3] = test system: cattle ticks (Boophilus microplus); test: Boophilus microplus injection test (BOOPMI Inj); assay type: in vivo; details: application rate 20 μg/animal, injection, after 7 days
[4] = test system: Lucilia cuprina larvae; test: Lucilia cuprina (48 h); assay type: in vivo; details: application rate 100 ppm, after 48 hours
Method: as §1
10 mg of active compound are dissolved in 0.5 ml of dimethyl sulfoxide. To prepare a suitable formulation, the active compound solution is diluted with water to the concentration desired in each case. About 20 Lucilia cuprina larvae are introduced into a test tube which contains about 1 cm^3 of horse meat and 0.5 ml of the preparation of active compound to be tested. After 48 hours, the efficacy of the active compound preparation is determined as % larvae mortality.

[5] = test system: Boophilus microplus; test: Boophilus microplus test (BOOPMI injection); assay type: in vivo; design: dose or concentration left out as unconfirmed; details: after 7 days
Method: as §1
The solution of active compound is injected into the abdomen (Boophilus microplus), and the animals are transferred into dishes and kept in a climatized room. The activity is assessed by laying of fertile eggs.
100% means that none of the ticks has laid any fertile eggs.

[6] = logP by HPLC on reversed-phase columns (C 18), EEC Directive 79/831 Annex V.A8; assay type: physicochemical; details: for logP(neutral): pH 7.8
Method: Calibration is carried out using unbranched alkan-2-ones (having from 3 to 16 carbon atoms) with known log P values (the log P values are determined by the retention times using linear interpolation between two successive alkanones).

[7] = test system: nematode larvae (Cooperia curticei); test: Cooperia curticei test (COOPCU); assay type: in vivo; details: application rate 100 ppm, after 5 days
Method: as §1
Vessels containing the active compound preparation of the desired concentration are populated with about 40 nematode larvae (Cooperia curticei).
After 5 days, the kill in % is determined.

[8] = test system: larvae of the mustard beetle (Phaedon cochleariae); test: Phaedon test (PHAECO spray treatment); details: application rate 500 g/ha, after 7 days
[9] = test system: larvae of the mustard beetle (Phaedon cochleariae); test: Phaedon cochleariae spray test (PHAECO); details: application rate 500 g/ha, after 7 days

| SMILES | efficacy (kill of larvae) [1] [%] | efficacy (spider mites killed) [2] [%] | efficacy (laying of fertile eggs) [3] [%] | effect (% larvae mortality) [4] [%] | efficacy (laying of fertile eggs) [5] [%] | logP(neutral) [6] | pest or weed control at 500 g/ha ([2]; Tetranychus urticae, foliar, 144 h, read-out: efficacy (spider mites killed)) [%] | efficacy (kill of larvae) [7] [%] | efficacy (beetle larvae killed) [8] [%] | effect (beetle larvae killed) [9] [%] | logP(HCOOH) ([6]; pH 2.7) |
| --- | --- | --- | --- | --- | --- | --- | --- | --- | --- | --- | --- |
| Cc1cc(F)c(N=C(N)C(F)(F)F)cc1SCC(F)(F)F [Ia-21] | 100 | 100 | 100 | 100 | 100 | 3.12^[b] |  |  |  |  |  |
| CCN/C(=N\c1cc(SCC(F)(F)F)c(Cl)cc1Cl)c1cccnc1 [Ia-220] |  |  |  |  |  |  | 90 | 100 |  |  |  |
| Cc1cc(F)c(/N=C(/N)C(F)(F)F)cc1[S+]([O-])CC(F)(F)F (centres unmarked) [Ib-11] | 100 | 100 | 100 | 100 | 100 | 2.71 |  |  | 100 | 100 | 2.77 |
